Values of other authors in patent publication US20080063689A1, “Dietary supplements containing anthocyanins and methods for using same to enhance creatine absorption and vasodilation” (priority 2006, published 2008).

System: pancreatic beta cells
Conditions: glucose concentrations within physiological norms

Row | Substance | ability to stimulate insulin secretion
1 | cyanidin-3-glycoside | highest abilities to stimulate insulin secretion
2 | delphinium 3-glycoside | highest abilities to stimulate insulin secretion
